This assay has as its target [35S]-TBPS binding, rat brain cortical membranes. The assay is described as follows: Steroid inhibition of [35S]-TBPS binding. The conditions noted are these: Table 5, 3 nM [35S]-TBPS, in the presence of 5 mM GABA, read-out: TBPS IC50. The procedure, abridged: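 Washed P2 cortical membranes from Sprague-Dawley rats, in 200 mM NaCl/50 mM Na-K phosphate pH 7.4, incubated 90 min at room temp with 3 nM [35S]-TBPS, […] GABA and test drug (0.5% DMSO final). Nonspecific binding defined with […] unlabeled TBPS; filtration and scintillation counting. IC50 and Imax from non-linear curve fits, means±SEM of experiments.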

This is an account of results in patent publication US20260098053A1, “COMPOSITIONS AND METHODS FOR TREATING CNS DISORDERS” (SAGE THERAPEUTICS, INC., priority 2019, published 2026).

`C[C@@]1(O)CC[C@H]2[C@H](CC[C@@H]3[C@@H]2CC[C@H]2[C@H]3CC[C@@H]2C(=O)Cn2cc(C#N)cn2)C1` [Example 68, 1-(2-((3R,5R,8R,9R,10S,13S,14S,17S)-3-hydroxy-3-methylhexadecahydro-1H-cyclopenta[a]phenanthren-17-yl)-2-oxoethyl)-1H-pyrazole-4-carbonitrile]: the IC50 (as a rule, the concentration at which inhibition is half-maximal) was < 100 nM.
